Experimental data published in ChEMBL document CHEMBL3232941, “Docking and SAR studies of calystegines: binding orientation and influence on pharmacological chaperone effects for Gaucher's disease” (Bioorg Med Chem, 2014).

Experiments:
[1] = biological target: T1, Lysosomal acid glucosylceramidase (Homo sapiens, UniProt P04062); assay: Competitive inhibition of human lysosomal beta-glucocerebrosidase using 4-methylumbelliferyl-beta-D-glucopyranoside as substrate preincubated for 45 mins before substrate addition measured after 30 mins by double-reciprocal plot analysis
T1 sequence (P04062 whole entry): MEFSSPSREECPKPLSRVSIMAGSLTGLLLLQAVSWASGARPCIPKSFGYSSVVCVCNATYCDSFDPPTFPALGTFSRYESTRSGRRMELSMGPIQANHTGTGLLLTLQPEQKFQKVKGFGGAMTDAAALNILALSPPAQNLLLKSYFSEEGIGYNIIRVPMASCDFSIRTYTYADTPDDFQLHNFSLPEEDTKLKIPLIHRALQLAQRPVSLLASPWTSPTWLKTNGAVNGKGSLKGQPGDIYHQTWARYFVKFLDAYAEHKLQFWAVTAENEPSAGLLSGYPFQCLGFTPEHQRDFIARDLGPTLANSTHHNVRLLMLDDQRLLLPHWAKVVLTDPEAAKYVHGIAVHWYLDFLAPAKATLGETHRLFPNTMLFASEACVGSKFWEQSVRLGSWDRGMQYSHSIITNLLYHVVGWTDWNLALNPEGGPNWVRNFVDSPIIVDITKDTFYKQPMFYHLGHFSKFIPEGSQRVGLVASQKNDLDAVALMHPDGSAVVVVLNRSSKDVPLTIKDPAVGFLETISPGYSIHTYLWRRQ

[2] = biological target: T1, Lysosomal acid glucosylceramidase; assay: Inhibition of human lysosomal beta-glucocerebrosidase using 4-methylumbelliferyl-beta-D-glucopyranoside as substrate preincubated for 45 mins before substrate addition measured after 30 mins by fluorescence spectrophotometer analysis
[3] = biological target: T2, Lysosomal acid glucosylceramidase (Homo sapiens) (UniProt P04062); assay: Inhibition of human lysosomal beta-glucocerebrosidase using 4-methylumbelliferyl-beta-D-glucopyranoside as substrate at 1000 uM preincubated for 45 mins before substrate addition measured after 30 mins by fluorescence spectrophotometer analysis
T2 sequence (whole entry): T1 sequence (P04062 whole entry)

Compound	Ki [1] [µM]	IC50 [2] [µM]	inhibition [3] [%]
O[C@@H]1[C@@H](O)[C@H]2CC[C@](O)(N2)[C@@H]1O	199	616	–
O[C@@H]1C[C@H]2CC[C@](O)(N2)[C@H]1O	6.3	16	–
O[C@@H]1[C@@H](O)[C@H](O)[C@]2(O)CC[C@H]1N2 [CALYSTEGINE B2]	3.8	5.1	–
O[C@@H]1[C@H](O)[C@H]2CC[C@](O)(N2)[C@H]1O	98	175	–
O[C@@H]1[C@@H](O)C[C@]2(O)CC[C@H]1N2	–	–	< 50
